“And” between values parts separate entries of the source, which are not always exact repeats. Identical values can stand only once. Toxic doses and inconclusive results are not listed.

The subject of the test is L1210 leukemia ip in BDF1 mice, survival T/C. Description: NCI In Vivo Anticancer Drug Screen. Data for tumor model L1210 Leukemia (intraperitoneal) in B6D2F1 (BDF1) mice. To be noted: endpoint: mean survival time, higher = longer survival. The method, boiled down: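 In this screen, tumor-bearing mice given compound are compared to those given vehicle, and their survival values are reported as a treated-to-control quotient.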

Setting [1] is: dose: 50.0 mg/kg/injection, schedule: Q01DX001 (ip), vehicle: saline.
Where [2] appears, read: dose: 100.0 mg/kg/injection, schedule: Q01DX001 (ip), vehicle: saline.
The mark [3] stands for this setting: dose: 100.0 mg/kg/injection, schedule: Q04DX003 (ip), vehicle: Klucel (hydroxypropylcellulose) (HPC).
Where [4] appears, read: dose: 200.0 mg/kg/injection, schedule: Q01DX001 (ip), vehicle: saline.
[5] abbreviates: dose: 200.0 mg/kg/injection, schedule: Q04DX003 (ip), vehicle: Klucel (hydroxypropylcellulose) (HPC).
[6] abbreviates: dose: 400.0 mg/kg/injection, schedule: Q01DX001 (ip), vehicle: saline.
Where [7] appears, read: dose: 400.0 mg/kg/injection, schedule: Q04DX003 (ip), vehicle: Klucel (hydroxypropylcellulose) (HPC).

For `O=C(CCc1ccccc1)Nc1ccccc1`, the T/C is, setting by setting: under setting [1], 96 % of control; under setting [2], 106 % of control; under setting [3], 97 % of control; under setting [4], 101 % of control; under setting [5], 102 % of control; under setting [6], 102 % of control. For the same compound, the T/C under setting [7] was 89 % of control.
On to `CN=C(N)c1ccc(N=C(N)c2cccc(C(N)=Nc3ccc(C(N)=NC)cc3)c2)cc1`, for which the T/C (dose: 15.0 mg/kg/injection, schedule: Q01DX Z (ip), vehicle: saline) was 97 % of control and the T/C (dose: 30.0 mg/kg/injection, schedule: Q01DX Z (ip), vehicle: saline) was 120 % of control.
Take `CNCCc1ccc(OC)c(OC)c1`: the T/C (dose: 25.0 mg/kg/injection, schedule: Q04DX002 (ip), vehicle: saline) is 104 % of control; the T/C (dose: 50.0 mg/kg/injection, schedule: Q04DX002 (ip), vehicle: saline) was 107 % of control; the T/C (dose: 100.0 mg/kg/injection, schedule: Q04DX002 (ip), vehicle: saline) was 96 % of control.
Turning to `CCCCCCC/C=C/c1c(C)[nH]c2ccccc2c1=O`, the T/C by setting is: under setting [3], 96 % of control; under setting [5], 93 % of control; under setting [7], 89 % of control.
In the case of `CN(C)/C=N\c1ncnc2c1ncn2C1OC(CO)C(O)C1O` (stereo not given), the T/C is 102 % of control (dose: 100.0 mg/kg/injection, schedule: Q04DX002 (ip), vehicle: saline with Tween-80); 98 % of control (dose: 200.0 mg/kg/injection, schedule: Q04DX002 (ip), vehicle: saline with Tween-80); 102 % of control (dose: 400.0 mg/kg/injection, schedule: Q04DX002 (ip), vehicle: saline with Tween-80).
Take `CCCCCCc1cc2c(cc1CCCC)CCC2`: the T/C is 95 % of control under setting [1], 101 % of control under setting [2], 98 % of control under setting [4] and 116 % of control under setting [6].
Take `Cc1nc(N)[nH]c(=O)c1CCCNc1ccc(CCC(=O)CCl)cc1`: the T/C (dose: 50.0 mg/kg/injection, schedule: Q01DX Z (ip), vehicle: carboxymethylcellulose (CMC)) was 94 % of control; the T/C (dose: 100.0 mg/kg/injection, schedule: Q01DX Z (ip), vehicle: carboxymethylcellulose (CMC)) is 94 % of control; the T/C (dose: 200.0 mg/kg/injection, schedule: Q01DX Z (ip), vehicle: carboxymethylcellulose (CMC)) was 86 % of control.
`Nn1cnc2c(=S)nc[nH]c21`: the T/C (dose: 42.0 mg/kg/injection, schedule: Q01DX015 (ip), vehicle: other) was 101 % of control; the T/C (dose: 72.0 mg/kg/injection, schedule: Q01DX015 (ip), vehicle: other) was 101 % of control; the T/C (dose: 100.0 mg/kg/injection, schedule: Q01DX001 (ip), vehicle: other) is 102 % of control; the T/C (dose: 177.0 mg/kg/injection, schedule: Q01DX001 (ip), vehicle: other) was 97 % of control; the T/C (dose: 177.0 mg/kg/injection, schedule: Q01DX001 (ip), vehicle: saline) is 102 % of control; the T/C (dose: 200.0 mg/kg/injection, schedule: Q01DX001 (ip), vehicle: other) is 102 % of control. For the same compound, the T/C is 86 % of control (dose: 200.0 mg/kg/injection, schedule: Q01DX015 (ip), vehicle: other); 115 % of control (dose: 266.0 mg/kg/injection, schedule: Q01DX001 (ip), vehicle: other); 101 % of control (dose: 266.0 mg/kg/injection, schedule: Q01DX001 (ip), vehicle: saline); 154 % of control and 164 % of control (dose: 400.0 mg/kg/injection, schedule: Q01DX001 (ip), vehicle: other); 104 % of control under setting [6]; 167 % of control (dose: 600.0 mg/kg/injection, schedule: Q01DX001 (ip), vehicle: saline).
Consider `CC(CCOC(=O)c1ccccc1)=C(c1ccccc1)c1ccccc1`, for which the T/C reads like this: (dose: 100.0 mg/kg/injection, schedule: Q04DX002 (ip), vehicle: Klucel (hydroxypropylcellulose) (HPC)) 107 % of control; (dose: 200.0 mg/kg/injection, schedule: Q04DX002 (ip), vehicle: Klucel (hydroxypropylcellulose) (HPC)) 95 % of control; (dose: 400.0 mg/kg/injection, schedule: Q04DX002 (ip), vehicle: Klucel (hydroxypropylcellulose) (HPC)) 95 % of control.
As to `CCN(O)C(N)=O`, the T/C reads like this: (dose: 34.5 mg/kg/injection, schedule: Q01DX009 (ip), vehicle: saline) 107 % of control; (dose: 52.0 mg/kg/injection, schedule: Q01DX009 (ip), vehicle: saline) 111 % of control; (dose: 62.0 mg/kg/injection, schedule: Q03HX024 (ip), vehicle: saline) 101 % of control; (dose: 78.0 mg/kg/injection, schedule: Q01DX009 (ip), vehicle: saline) 113 % of control; (dose: 117.0 mg/kg/injection, schedule: Q01DX009 (ip), vehicle: saline) 110 % of control and 122 % of control (2×); (dose: 125.0 mg/kg/injection, schedule: Q03HX024 (ip), vehicle: saline) 98 % of control. In addition, the T/C reads like this: (dose: 178.0 mg/kg/injection, schedule: Q01DX009 (ip), vehicle: saline) 112 % of control; (dose: 600.0 mg/kg/injection, schedule: Q01DX009 (ip), vehicle: saline) 166 % of control and 167 % of control.
As to `C=CCOB(OCC=C)OCC=C`, the T/C by setting is: (dose: 12.5 mg/kg/injection, schedule: Q01DX009 (ip), vehicle: saline) 120 % of control; (dose: 25.0 mg/kg/injection, schedule: Q01DX009 (ip), vehicle: saline) 101 % of control; (dose: 25.0 mg/kg/injection, schedule: Q04DX003 (ip), vehicle: saline) 97 % of control; (dose: 50.0 mg/kg/injection, schedule: Q01DX009 (ip), vehicle: saline) 106 % of control; (dose: 50.0 mg/kg/injection, schedule: Q04DX003 (ip), vehicle: saline) 103 % of control.
For the compound `CC(=O)/C(=N\N=C(N)N)c1ccccc1`, the T/C (dose: 1.88 mg/kg/injection, schedule: Q01DX Z (ip), vehicle: saline) was 102 % of control; the T/C (dose: 3.75 mg/kg/injection, schedule: Q01DX Z (ip), vehicle: saline) is 93 % of control; the T/C (dose: 3.75 mg/kg/injection, schedule: Q01DX Z (oral), vehicle: other) was 90 % of control; the T/C (dose: 7.5 mg/kg/injection, schedule: Q01DX Z (ip), vehicle: saline) is 98 % of control; the T/C (dose: 7.5 mg/kg/injection, schedule: Q01DX Z (oral), vehicle: other) was 98 % of control; the T/C (dose: 15.0 mg/kg/injection, schedule: Q01DX Z (oral), vehicle: other) is 96 % of control.
Turning to `O=C(Nc1ccc(C2=NCCN2)cc1)Nc1ccccc1NC(=O)Nc1ccc(C2=NCCN2)cc1`, the T/C runs as follows: (dose: 3.12 mg/kg/injection, schedule: Q01DX Z (ip), vehicle: water) 100 % of control; (dose: 6.25 mg/kg/injection, schedule: Q01DX Z (ip), vehicle: water) 117 % of control; (dose: 12.5 mg/kg/injection, schedule: Q01DX Z (ip), vehicle: water) 105 % of control.
For the compound `CCC(O)CNC1CCCCC1` (stereo not given), the T/C (dose: 75.0 mg/kg/injection, schedule: Q01DX001 (ip), vehicle: saline) was 98 % of control and the T/C (dose: 150.0 mg/kg/injection, schedule: Q01DX001 (ip), vehicle: saline) is 98 % of control.
Turning to `C/C=C(/C)c1ccccc1`, the T/C runs as follows: (dose: 100.0 mg/kg/injection, schedule: Q01DX001 (ip), vehicle: carboxymethylcellulose (CMC)) 95 % of control; (dose: 200.0 mg/kg/injection, schedule: Q01DX001 (ip), vehicle: carboxymethylcellulose (CMC)) 95 % of control; (dose: 400.0 mg/kg/injection, schedule: Q01DX001 (ip), vehicle: carboxymethylcellulose (CMC)) 95 % of control.
Regarding `CCCCNC(=O)/C=C/C(=O)NCCCC`, the T/C was 100 % of control (dose: 100.0 mg/kg/injection, schedule: Q04DX003 (ip), vehicle: saline with Tween-80); 100 % of control (dose: 200.0 mg/kg/injection, schedule: Q04DX003 (ip), vehicle: saline with Tween-80); 100 % of control (dose: 400.0 mg/kg/injection, schedule: Q04DX003 (ip), vehicle: saline with Tween-80).
Take `CCOC(=Nc1ccccc1)c1ccccc1`: the T/C is, setting by setting: (dose: 100.0 mg/kg/injection, schedule: Q01DX009 (ip), vehicle: Klucel (hydroxypropylcellulose) (HPC)) 104 % of control; (dose: 200.0 mg/kg/injection, schedule: Q01DX009 (ip), vehicle: Klucel (hydroxypropylcellulose) (HPC)) 100 % of control; (dose: 400.0 mg/kg/injection, schedule: Q01DX009 (ip), vehicle: Klucel (hydroxypropylcellulose) (HPC)) 102 % of control.
`Cc1nccnc1S(=O)(=O)c1ccc2ccccc2c1`: the T/C (dose: 100.0 mg/kg/injection, schedule: Q01DX001 (ip), vehicle: Klucel (hydroxypropylcellulose) (HPC)) is 101 % of control and the T/C (dose: 200.0 mg/kg/injection, schedule: Q01DX001 (ip), vehicle: Klucel (hydroxypropylcellulose) (HPC)) is 97 % of control.

The record behind these values is PubChem BioAssay AID248 (DTP/NCI, 2004).
